Assay: Antagonist activity at TP receptor in human platelet assessed as thromboxane A2- induced platelet aggregation

C[C@@H](c1ccc(C(F)(F)F)cc1)n1c2c(c3cc(F)cc(S(C)(=O)=O)c31)CCC[C@@H]2CC(=O)O [2-((R)-6-fluoro-8-(methylsulfonyl)-9-((S)-1-(4-(trifluoromethyl)phenyl)ethyl)-2,3,4,9-tetrahydro-1H-carbazol-1-yl)acetic acid]
IC50: 19.4 µM

Reference: BindingDB's records for doi:10.1016/j.bmcl.2010.10.018 (Merck Frosst Centre For Therapeutic Research, 2010)
